Ends that are not written are not given here.
Assays:
[1] = tested on: insulin treated obese NIDDM patients; assay: Example 1: standard test meal study, meal-related C-peptide response, glucagon response and IMIR; format: in vivo, human; settings: GLP-1(7-36)amide 0.75 pmol/kg/min infusion for 210 min, glibenclamide 1 mg i.v., 6 insulin treated obese NIDDM patients
[2] = tested on: patients with NIDDM and secondary failure to sulfonylurea treatment; assay: Example 2: basal state and standard lunch study in patients with secondary failure to sulfonylurea treatment; format: in vivo, human; settings: for Insulinogenic index (integrated insulin/integrated glucose response): after ingestion of the meal; for Insulinogenic index (integrated insulin/integrated glucose response) / Blood glucose: GLP-1(7-36)amide 0.75 pmol/kg/min, glibenclamide 1 mg i.v., 8 NIDDM patients with sulfonylurea failure
[3] = tested on: isolated precultured rat pancreatic islets; settings: in the presence of glucose, dose-dependent; cited from earlier work
healthy volunteers = settings: peptide infused into healthy volunteers; cited from earlier work
[4] = tested on: diabetic as well as nondiabetic subjects; settings: cited from earlier work
[5] = basal state, 45 minutes after start of administration

Compound: COc1ccc(Cl)cc1C(=O)NCCc1ccc(S(=O)(=O)NC(=O)NC2CCCCC2)cc1 [glibenclamide]
- Glucagon response [1]: no significant effect
- Insulinogenic index (integrated insulin/integrated glucose response) [2]: 10.6 ± 2.8,
- effect on blood glucose and C-peptide levels (in words) [2, 5]: no significant effect on its own
- Blood glucose [2, 5]: 6.0 ± 0.3 mmol/L

Compound: GLP-1(1-36)amide: amide of a fragment of GLP-1 comprising amino acid residues 1 to 36 (HDEFERHAEGTFTSDVSSYLEGQAAKEFIAWLVKGR-NH2; UniProt P01275 92-127, looked up, fragment)
- insulin release [3]: stimulates insulin release

Compound: GLP-1(7-36)amide: Peptide of formula I, His-Ala-Glu-Gly-Thr-...-Lys-Gly-Arg-X with X = NH2; fragment of glucagon-like peptide-1
- plasma insulin (healthy volunteers): significant rise in plasma insulin
- Insulinogenic index (integrated insulin/integrated glucose response) [2]: 21.0 ± 7.2,
- Blood glucose [2, 5]: 5.1 ± 0.4 mmol/L

Compound: GLP-1(7-37): Peptide of formula I with X = Gly-OH; residues 7 to 37 of GLP-1 (HAEGTFTSDVSSYLEGQAAKEFIAWLVKGRG-OH; UniProt P01275 98-128, looked up, fragment)
- insulinotropic action [4]: has been demonstrated

Reference: patent US20070225212A1, “Use of a peptide” (priority 1992, published 2007)
